In US20250270648A1, “MOLECULAR SIGNATURE FOR ASSESSING THE RESPONSIVENESS OF CANCER TO MITOCHONDRIA-TARGETED ANTIOXIDANTS” (UNIVERSITÉ CATHOLIQUE DE LOUVAIN, priority 2021, published 2025):

Columns and labels:
MDA-MB-231 cells [1] = test: Glucose consumption and lactate production, enzymatic assays on CMA600; assay type: cell-based, human; details: 48 h
Procedure: (§1) Glucose and lactate concentrations were measured in cell supernatants collected after 48 h of culture ±MitoQ, using specific enzymatic assays on a CMA600 analyzer (Aurora Borealis®), as previously described in Sonveaux et al. (J Clin Invest; 2008; 118, 3930-3942). All data were normalized by total protein content (Bio-Rad® Protein Assay).

SkBr3 cells [2] = test: as above; assay type: cell-based, human; details: indicated doses of MitoQ, 48 h
Procedure: as §1

MDA-MB-231 cells [3] = test: Cell migration, scratch test; assay type: cell-based, human; details: MitoQ 100 nM, 48 h
Procedure: (§2) A scratch test was performed on cells treated ±MitoQ for 48 h (Tamura et al.; Science, 1998; 280, 1614-1617). For each condition and each time point, pictures were taken in the same field, and the distance between the wound edges was analyzed using the Image J software (Java®). The percentage of scratch closure was calculated in respect to wounded area at 0 h.

MDA-MB-436 cells [4] = test: Cell migration, scratch test; assay type: cell-based, human; details: MitoQ 100 nM, 48 h
Procedure: as §2

SkBr3 cells [5] = test: Cell migration, scratch test; assay type: cell-based, human; details: MitoQ 100 nM, 48 h
Procedure: as §2

MDA-MB-231 cells [6] = test: Cell invasion, Boyden chamber; assay type: cell-based, human; details: MitoQ 100 nM, 48 h
Procedure: (§3) Cell chemotaxis was assayed in a 48-well micro-chemotaxis chamber (Neuroprobe® AP48) with polycarbonate porous membrane (8-μm diameter, Neuroprobe® PFB8) coated with 5 μg/mL of fibronectin, according to manufacturer's instructions. Briefly, MDA-MB-231 (20,000 cells/well), SkBr3 (40,000 cells/well) or MDA-MB-436 (80,000 cells/well) cells were seeded in the upper compartment in culture media deprived of FBS, and 0.2% (v/v) FBS-containing medium (for MDA-MB-231 and MDA-MB-436 cells) or 10% (v/v) FBS-containing medium supplemented with 10 ng/mL of human EGF (PrepoTech®, cat #AF-100-15) (for SkBr3 cells) were used as chemo-attractants. Cells were allowed to invade through the membrane overnight. Membranes were then washed with PBS, fixed in methanol, and stained with crystal violet (0.23% v/v). Pictures were acquired under an Axiovert™ 40 CFL microscope (Zeiss®) equipped with a MRC camera (Zeiss®). Quantification was performed using the Image J software.

MDA-MB-436 cells [7] = test: Cell invasion, Boyden chamber; assay type: cell-based, human; details: MitoQ 100 nM, 48 h
Procedure: as §3

SkBr3 cells [8] = test: Cell invasion, Boyden chamber; assay type: cell-based, human; details: MitoQ 100 nM, 48 h
Procedure: as §3

[9] = system: MDA-MB-231 human triple-negative breast cancer; test: Spontaneous metastasis and recurrence, orthotopic MDA-MB-231 model; assay type: in vivo, mouse; details: MitoQ 20 mg/kg daily oral
Procedure: For spontaneous metastasis assays using human breast cancer cells, MDA-MB-231, SkBr3 or MDA-MB-436 cells were prepared in medium containing 10% growth factor-reduced Matrigel (Corning®, cat #734-11-01). Five weeks-old female Rj:NMRI-Foxnlnu/nu mice (Janvier) were injected with 10^6 cancer cells in 100 μL of solution in the left second mammary fat pad. After tumor take (72 h), mice were daily treated ±20 mg/Kg MitoQ by oral gavage. Tumor size was measured once per week with an electronic caliper. Four weeks after treatment initiation, primary tumors were surgically removed and processed for RT-qPCR. Tumor recurrence was monitored until recurred tumors in the vehicle group reached about […], i.e. 24 days after surgery. At this time point, mice were sacrificed and their lungs collected and fixed in PFA 4% for immunocytochemistry.
Collected lungs were processed for immunohistochemistry as previously shown. They were stained for Cytokeratin 19 (CK19) using a primary rabbit recombinant anti-CK19 antibody (Abcam®, cat #ab76539) and a secondary Envision anti-rabbit antibody coupled to HRP (Dako®, cat #K4003), and counter-stained with H&E. Images of whole lung slides were acquired on a SCN400 Slide Scanner (Leica®) and analyzed with the QuPath Software (0.1.2). Quantification was performed according to Chang and Erler (Adv Exp Med Biol, 2016; 899, 245-251), and the number of lung metastases was proportional to the positive areas of CK19 staining.

MDA-MB-231 cells [10] = test: Cell numbers, chemotherapy ±MitoQ, crystal violet; assay type: cell-based, human; details: increasing doses of chemotherapy ±100 nM MitoQ; 24-72 h
Procedure: (§4) To test the effects of combination treatments on cell numbers, MDA-MB-231 or SkBr3 cancer cells were plated in 96-well plates and treated with increasing concentrations of chemotherapeutic drug ±MitoQ for 24 h (epirubicin), 48 h (doxorubicin, 5-FU, cisplatin, paclitaxel) or 72 h (gemcitabine). Cells were then fixed in 11% glutaraldehyde and stained with crystal violet. The dye retained by the cells was solubilized in 10% acetic acid, and the optical density (570 nm) was measured using a SpectraMax i3 spectrophotometer equipped with a MiniMax™ imaging cytometer.

SkBr3 cells [11] = test: Cell numbers, chemotherapy ±MitoQ, crystal violet; assay type: cell-based, human; details: increasing doses of chemotherapy ±100 nM MitoQ; 24-72 h
Procedure: as §4

MCF7 cells = test: Migration towards 0.5% serum, chemotaxis chamber; assay type: cell-based, human; details: 0.1 μg/mL DXR + 100 nM MitoQ
Procedure: (§5) Previous to migration and invasion assays, cells were pretreated with the indicated amounts of drugs for 16 h, and left to recover for 6 h in full culture medium. Migration assays were performed in a NeuroProbe® standard 48-well chemotaxis chamber according to manufacturer's instructions. Briefly, the bottom chamber was filled with DMEM containing 0.5% serum as a chemo-attractant. Fifty thousand cells were seeded in the upper chamber in the same medium but without serum ±MitoQ where indicated, and allowed to migrate overnight through an 8-μm pore-size polycarbonate membrane. A similar stimulation protocol was used for invasion assays, with the difference of using Matrigel-coated transwells (Corning®). With MCF7 cells, membranes were previously incubated for 30 min with a solution of Vitronectin 10 μg/ml (Sigma-Aldrich®, #SRP3186). Migrated/invaded cells were fixed and stained with 100 μl of a 0.23% crystal violet solution (Sigma-Aldrich®, #C0775) for 10 min before counting on a SpectraMax™ i3 spectrophotometer equipped with a MiniMax imaging cytometer, using the SoftMax Pro software. Data were normalized to vehicle-treated cells (control).

MDA-MB-231 cells [12] = test: Migration towards 0.5% serum, chemotaxis chamber; assay type: cell-based, human; details: indicated doses of cisplatin + 100 nM MitoQ
Procedure: as §5

COC1=C(OC)C(=O)C(CCCCCCCCCC[P+](c2ccccc2)(c2ccccc2)c2ccccc2)=C(C)C1=O [MitoQ]
glycolytic rate (glucose consumption, lactate production) (MDA-MB-231 cells [1]; MitoQ 100 nM): increasing
glycolytic compensation with increasing dose (MDA-MB-231 cells [1]; indicated doses of MitoQ): saturated
glycolytic compensation with increasing dose (SkBr3 cells [2]): saturated
migratory capability (MDA-MB-231 cells [3]): highly significantly reduced
cell migration (MDA-MB-436 cells [4]): inhibited
migratory capability (SkBr3 cells [5]): highly significantly reduced
invasive capability (MDA-MB-231 cells [6]): highly significantly reduced
cell invasion (MDA-MB-436 cells [7]): inhibited
invasive capability (SkBr3 cells [8]): highly significantly reduced
primary tumor growth ([9]; P=0.3150): not significantly affected
recurrence-free survival ([9]; after surgery): significantly improved
mice with no metastasis ([9]; day +56, 9.5% in the control group): 75.0%
metastatic dissemination (lungs) ([9]; sacrifice day +56): highly significantly prevented
animals in which primary tumors relapsed after surgery ([9]; surgery day +32, 100% in the control group): 25%
cytostatic/cytotoxic effects of doxorubicin, epirubicin, 5-fluorouracil (5-FU), cisplatin, paclitaxel and gemcitabine (MDA-MB-231 cells [10]): did not alter
cytostatic/cytotoxic effects of doxorubicin, epirubicin, 5-fluorouracil (5-FU), cisplatin, paclitaxel and gemcitabine (SkBr3 cells [11]): did not alter
DXR-stimulated cell migration (MCF7 cells): inhibited
breast cancer cell migration in the presence of cisplatin (MDA-MB-231 cells [12]): repressed
